US9790218B2, “Small molecule activators of calcium-activated chloride channels and methods of use” (The Regents of the University of California, priority 2011, dated 2017)
Read-outs that look alike come from different tables or passages of the source.

Key:
TMEM16A [1] = molecular target: T1, TMEM16A (Homo sapiens, UniProt Q5XXA6, DEL476-501); assay: Fluorescence plate reader assay of TMEM16A-mediated I^− influx (YFP halide sensor); assay type: cell-based; conditions: for EC50 (μM) / EC50: fluorescence plate reader assay; for TMEM16A conductance, F class SAR: synthesized F class analogs; for EC50: read-out: EC50
T1 construct: expressed in transfected cells
T1 sequence (Q5XXA6 with tags, fused parts or gaps isoform Q5XXA6-5 DEL539-564): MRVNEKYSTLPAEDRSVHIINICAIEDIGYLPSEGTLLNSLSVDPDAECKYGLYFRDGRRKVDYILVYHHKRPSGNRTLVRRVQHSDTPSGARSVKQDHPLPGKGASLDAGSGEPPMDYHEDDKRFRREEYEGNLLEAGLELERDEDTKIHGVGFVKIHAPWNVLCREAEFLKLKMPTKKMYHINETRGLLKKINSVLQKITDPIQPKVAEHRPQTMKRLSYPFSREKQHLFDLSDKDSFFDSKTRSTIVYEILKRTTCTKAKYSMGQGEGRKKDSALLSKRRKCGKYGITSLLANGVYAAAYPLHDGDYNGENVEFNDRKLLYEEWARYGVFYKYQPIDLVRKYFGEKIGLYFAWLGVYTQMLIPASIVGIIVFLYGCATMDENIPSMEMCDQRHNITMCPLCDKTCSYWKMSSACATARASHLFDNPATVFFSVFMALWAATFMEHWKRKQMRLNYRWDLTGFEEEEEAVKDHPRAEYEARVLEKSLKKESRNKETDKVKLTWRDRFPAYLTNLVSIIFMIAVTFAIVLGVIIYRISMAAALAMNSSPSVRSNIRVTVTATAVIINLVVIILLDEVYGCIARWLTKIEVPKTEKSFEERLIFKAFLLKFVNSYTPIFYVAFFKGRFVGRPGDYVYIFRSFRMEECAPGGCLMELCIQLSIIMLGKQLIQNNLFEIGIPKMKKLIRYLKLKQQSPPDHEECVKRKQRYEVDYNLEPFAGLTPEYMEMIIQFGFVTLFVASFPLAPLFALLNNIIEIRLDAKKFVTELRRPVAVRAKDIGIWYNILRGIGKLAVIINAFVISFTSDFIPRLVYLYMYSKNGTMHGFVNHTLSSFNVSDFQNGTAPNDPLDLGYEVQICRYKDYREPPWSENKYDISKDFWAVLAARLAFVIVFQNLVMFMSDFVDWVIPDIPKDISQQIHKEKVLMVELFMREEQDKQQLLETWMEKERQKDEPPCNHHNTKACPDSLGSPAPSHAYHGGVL
Protocol: (§1) FRT cells were stably transfected with human TMEM16A (TMEM16A(abc), cDNA provided by Dr. Luis Galietta, Gaslini Institute, Genoa, Italy) and the halide sensor YFP-H148Q/1152L/F46L. Cells were plated in 96-well black-walled microplates (Corning Inc., Corning, N.Y.) at a density of 20,000 cells per well in Coon's modified F12 medium supplemented with 5% fetal calf serum, 2 mM L-glutamine, 100 U/mL penicillin and 100 μg/mL streptomycin. The human submandibular cell line A253 (ATCC HTB 41) was cultured in complete McCoy's 5A medium supplemented with 10% fetal bovine serum, 100 U/mL penicillin and 100 μg/mL streptomycin.
TMEM16A activators were identified from screening of ˜110,000 synthetic drug-like compounds, purified natural products and approved/investigational drugs. The cell-based screen employs FRT cells coexpressing human TMEM16A and the I^−-sensing yellow fluorescent protein YFP-H148Q/1152L/F46L. FRT cells were chosen because of their low basal I^− and Cl^− transport, rapid growth on uncoated plastic, strong stable expression of transfected proteins, and formation of tight junctions for measurements of transepithelial short-circuit current (Ma et al., supra).
High-throughput screening was done using an automated screening platform (Beckman) equipped with FluoStar fluorescence plate readers (BMG Lab Technologies, Durham, N.C.) as described (Ma et al., supra). Each well of a 96-well plate was washed 3 times with PBS (200 μL/wash), leaving 50 μL PBS. Test compounds (0.5 μL) were added to each well at […]. After 10 min, 96-well plates were transferred to a plate reader for fluorescence assay. Each well was assayed individually for TMEM16A-mediated I^− influx by recording fluorescence continuously (400 ms per point) for 2 s (baseline), then 50 μL of a 140 mM I^− solution was added. The initial rate of I^− influx was computed from fluorescence data by non-linear regression.
As diagrammed in FIG. 1A, test compounds at 25 μM final concentration were added 10 min prior to I^− addition. The 10 min incubation was chosen to allow for compound transport into cytoplasm and to minimize false positives from compounds that elevate cytoplasmic Ca^2+ transiently. Fluorescence from individual wells of 96-well plates was measured just prior to and for 6 s after I^− addition for computation of initial I^− influx rate.

TMEM16A [2] = molecular target: T1, TMEM16A; assay: Apical membrane current in TMEM16A-expressing FRT cells; assay type: cell-based; conditions: basolateral membrane permeabilized, Cl^− gradient; ATP 100 μM
Protocol: as §1
Snapwell inserts containing TMEM16A-expressing FRT, HBE, CF HBE or HTG cells were mounted in Ussing chambers (Physiologic Instruments, San Diego, Calif.). Amiloride, CFTRinh-172, UTP, ATP, T16Ainh-A01 and TMEM16A activators were added to the apical solution and an equal volume of vehicle was added at the same time to the basolateral solution. Symmetrical HCO3^−-buffered solutions were used for HBE, CF HBE and HTG cells. For FRT cells, the hemichambers were filled with a half-Cl^− solution (apical) and the HCO3^−-buffered solution (basolateral), and the basolateral membrane was permeabilized with 250 μg/mL amphotericin B, as described (Namkung et al. (2010), supra). Cells were bathed for a 10 min stabilization period and aerated with 95% O2/5% CO2 at 37° C. or room temperature. Apical membrane current (for FRT cells) and short-circuit current were measured using an EVC4000 Multi-Channel V/I Clamp (World Precision Instruments, Sarasota, Fla.) and recorded using PowerLab/8sp (AD Instruments, Castle Hill, Australia).
The current increase was sustained for >10 min (FIG. 2B, inset). […] Data are also shown for a second Fact compound (Fact9, see Table 1) in FIG. 9.

[3] = tested on: mouse ileal smooth muscle; assay: Intestinal smooth muscle contraction, ex vivo mouse ileal segments; conditions: Eact 10 μM, carbachol 1 μM following atropine
Protocol: FIG. 8A-C. Intestinal smooth muscle contraction. FIG. 8A. Representative traces from mouse ileal segments showing effects of T16Ainh-A01 (10 μM), carbachol (CCh, 1 μM) and Eact (10 μM). FIG. 8B. Effect of CCh (1 μM) and Eact (10 μM) following atropine (1 μM). FIG. 8C. Summary of contraction frequency (left), and resting and maximum tone (right) (mean±S.E., n=4-7, * P<0.05).
Wild type CD1 mice (age 8-10 weeks) were killed by avertin overdose (200 mg/kg). The ileum removed and washed with ice-cold HCO3^−-buffered solution. The ends of the ileal segments were tied with silk thread and connected to a force transducer. Beal segments were equilibrated for 60 min with a resting force of ˜1 mN, with changes of the bathing solution every 15 min. Tension was monitored continuously with a fixed-range precision force transducer (TSD, 125 C; Biopac, Goleta, Calif.) connected to a differential amplifier (DA 100B; Biopac). Data were recorded using MP100, Biopac digital acquisition system and analyzed using Acknowledge 3.5.7 software.
TMEM16A in expressed in the interstitial cells of Cajal, the pacemaker cells that control smooth muscle contraction dynamics in stomach and intestine (Huang et al., supra; Gomez-Pinilla et al. (2009) Am. J. Physiol. Gastrointest. Liver Physiol. 296, G1370-1381). The effect of Eact on mouse ileal smooth muscle contraction was investigated using an ex vivo intestinal preparation. […] Without wishing to be bound by theory, the constitutive TMEM16A activity in this ex vivo preparation could obscure Eact activity. To reveal Eact effects, atropine was first added to inhibit basal contractions. […] FIG. 8C summarizes data on contraction frequency, resting tone and maximal tone.

O=C(Nc1ccc([N+](=O)[O-])cc1)c1cccc(-n2cnnn2)c1 [4-nitrophenyl]
EC50 (μM) (TMEM16A [1]; Fact analogs): inactive | TMEM16A conductance, F class SAR (TMEM16A [1]): low activity

O=C(Nc1ccc(Br)c(C(F)(F)F)c1)c1cccc(-n2cnnn2)c1 [4-bromo-3-trifluoromethylphenyl]
EC50 (TMEM16A [1]; Fact analogs): 55 µM

O=C(Nc1ccccc1Br)c1cccc(-n2cnnn2)c1 [2-bromophenyl]
EC50 (μM) (TMEM16A [1]; Fact analogs): inactive

COc1ccc(-c2csc(N(Cc3ccccc3)C(=O)c3cc(OC)c(OC)c(OC)c3)n2)cc1 [benzyl / 4-methoxyphenyl]
EC50 (TMEM16A [1]; Eact analogs): 4 µM

CN(C)c1ccc(NC(=O)c2cccc(-n3cnnn3)c2)cc1 [4-(N,N-dimethylamino)phenyl]
EC50 (μM) (TMEM16A [1]; Fact analogs): inactive | TMEM16A conductance, F class SAR (TMEM16A [1]): low activity

O=C(Nc1cccc(Br)c1)c1cccc(-n2cnnn2)c1 [3-bromophenyl]
EC50 (μM) (TMEM16A [1]; Fact analogs): inactive

COc1ccc(CC(=O)N(Cc2ccncc2)c2nc(-c3ccccc3)cs2)c(OC)c1OC [(pyrid-4-yl)methyl / phenyl, N-(4-pyridylmethyl)-N-(4-phenyl-2-thiazolyl)-2,3,4-trimethoxybenzeneacetamide]
EC50 (TMEM16A [1]; Eact analogs): 2 µM

Nc1ncnc2c1ncn2[C@@H]1O[C@H](COP(=O)(O)OP(=O)(O)OP(=O)(O)O)[C@@H](O)[C@H]1O [ATP, reference compound]
Cl^− current (apical membrane current) (TMEM16A [2]): large but transient elevation in Cl^− current

O=C(Nc1ccc(Cl)cc1)c1cccc(-n2cnnn2)c1 [4-chlorophenyl]
EC50 (μM) (TMEM16A [1]; Fact analogs): inactive | TMEM16A conductance, F class SAR (TMEM16A [1]): low activity

CN1[C@@H]2CC[C@H]1C[C@@H](OC(=O)C(CO)c1ccccc1)C2 (stereo partly drawn) [atropine]
contraction after atropine (1 μM) [3]: prevented the carbachol effect

CC(C)c1ccc(NC(=O)c2cccc(-n3cnnn3)c2)cc1 [Fact9, N-(4-isopropylphenyl)-3-(1H-tetrazol-1-yl)benzamide]
Cl^− current (apical membrane current) (TMEM16A [2]): stimulated TMEM16A Cl^− current | EC50 (TMEM16A [1]; Fact analogs): 11 µM
